ChEMBL document CHEMBL1144513, “Synthesis and SAR study of novel 7-(pyridinium-3-yl)-carbonyl imidazo[5,1-b]thiazol-2-yl carbapenems” (2007)
In brackets after ≈: the same amount, converted by molar mass.

Tests used:
Assay type in all cases: functional
[1] = test system: Staphylococcus aureus; experiment: Antibacterial activity against methicillin-resistant Staphylococcus aureus M126 by agar dilution method
[2] = test system: Haemophilus influenzae; experiment: Antibacterial activity against beta-lactamase-negative ampicillin-resistant Haemophilus influenzae 870 by agar dilution method
[3] = test system: Moraxella catarrhalis; experiment: Antibacterial activity against Moraxella catarrhalis W-0500 by agar dilution method
[4] = test system: Streptococcus pneumoniae; experiment: Antibacterial activity against penicillin-resistant Streptococcus pneumoniae KK133 by agar dilution method
[5] = test system: Staphylococcus aureus; experiment: Antibacterial activity against Staphylococcus aureus 209P JC1 by agar dilution method
[6] = test system: Klebsiella pneumoniae; experiment: Antibacterial activity against Klebsiella pneumoniae GN69 by agar dilution method
[7] = test system: Staphylococcus aureus; experiment: Antibacterial activity against carbapenem and methicillin-resistant Staphylococcus aureus M126HR by agar dilution method
[8] = test system: Escherichia coli; experiment: Antibacterial activity against Escherichia coli NIHJ JC2 by agar dilution method

SMILES	MIC [1] [µg/mL]	MIC [2] [µg/mL]	MIC [3] [µg/mL]	MIC [4] [µg/mL]	MIC [5] [µg/mL]	MIC [6] [µg/mL]	MIC [7] [µg/mL]	MIC [8] [µg/mL]
C[C@@H](O)[C@H]1C(=O)N2C(C(=O)[O-])=C(c3cn4c(C5CC5)nc(C(=O)c5ccc[n+](CC(N)=O)c5)c4s3)[C@H](C)[C@H]12	0.5 (≈ 0.934 µM)	0.031 (≈ 0.0579 µM)	0.016 (≈ 0.0299 µM)	0.031 (≈ 0.0579 µM)	0.016 (≈ 0.0299 µM)	4 (≈ 7.47 µM)	2 (≈ 3.73 µM)	4 (≈ 7.47 µM)
C[C@@H](O)[C@H]1C(=O)N2C(C(=O)[O-])=C(c3cn4cnc(C(=O)c5ccc[n+](CC(N)=O)c5)c4s3)[C@H](C)[C@H]12	0.5 (≈ 1.01 µM)	0.063 (≈ 0.127 µM)	0.016 (≈ 0.0323 µM)	0.031 (≈ 0.0626 µM)	≤ 0.008	0.063 (≈ 0.127 µM)	2 (≈ 4.04 µM)	0.031 (≈ 0.0626 µM)
C[C@@H](O)[C@H]1C(=O)N2C(C(=O)O)=C(c3cn4cnc(C(=O)C5CCNCC5)c4s3)[C@H](C)[C@H]12	1 (≈ 2.25 µM)	0.063 (≈ 0.142 µM)	0.031 (≈ 0.0697 µM)	0.063 (≈ 0.142 µM)	0.008 (≈ 0.018 µM)	0.125 (≈ 0.281 µM)	4 (≈ 9 µM)	0.063 (≈ 0.142 µM)
C[C@@H](O)[C@H]1C(=O)N2C(C(=O)[O-])=C(c3cn4cnc(C(=O)c5ccc[n+](CCNS(N)(=O)=O)c5)c4s3)[C@H](C)[C@H]12	1 (≈ 1.78 µM)	0.063 (≈ 0.112 µM)	0.016 (≈ 0.0285 µM)	0.031 (≈ 0.0553 µM)	≤ 0.008	0.063 (≈ 0.112 µM)	2 (≈ 3.57 µM)	0.031 (≈ 0.0553 µM)
C[C@@H](O)[C@H]1C(=O)N2C(C(=O)O)=C(c3cn4cnc(C(=O)c5cncs5)c4s3)[C@H](C)[C@H]12	0.031 (≈ 0.0697 µM)	0.063 (≈ 0.142 µM)	0.016 (≈ 0.036 µM)	0.031 (≈ 0.0697 µM)	≤ 0.008	2 (≈ 4.5 µM)	4 (≈ 9 µM)	1 (≈ 2.25 µM)
C[C@@H](O)[C@H]1C(=O)N2C(C(=O)[O-])=C(c3cn4cnc(C(=O)c5ccc[n+](CC(=O)C(F)(F)F)c5)c4s3)[C@H](C)[C@H]12	1 (≈ 1.82 µM)	0.063 (≈ 0.115 µM)	0.031 (≈ 0.0565 µM)	0.063 (≈ 0.115 µM)	0.016 (≈ 0.0292 µM)	0.25 (≈ 0.456 µM)	4 (≈ 7.29 µM)	0.125 (≈ 0.228 µM)
C[C@@H](O)[C@H]1C(=O)N2C(C(=O)O)=C(c3cn4cnc(C(=O)c5ccncc5)c4s3)[C@H](C)[C@H]12	0.063 (≈ 0.144 µM)	0.031 (≈ 0.0707 µM)	0.031 (≈ 0.0707 µM)	0.031 (≈ 0.0707 µM)	≤ 0.008	2 (≈ 4.56 µM)	4 (≈ 9.12 µM)	2 (≈ 4.56 µM)
C[C@@H](O)[C@H]1C(=O)N2C(C(=O)[O-])=C(c3cn4cnc(C(=O)c5ccc[n+](Cc6ccccc6)c5)c4s3)[C@H](C)[C@H]12	0.5 (≈ 0.946 µM)	0.063 (≈ 0.119 µM)	0.063 (≈ 0.119 µM)	0.016 (≈ 0.0303 µM)	≤ 0.008	1 (≈ 1.89 µM)	4 (≈ 7.57 µM)	0.5 (≈ 0.946 µM)
CSc1nc(C(=O)c2ccc[n+](CC(N)=O)c2)c2sc(C3=C(C(=O)[O-])N4C(=O)[C@H]([C@@H](C)O)[C@H]4[C@H]3C)cn12	0.5 (≈ 0.923 µM)	0.031 (≈ 0.0572 µM)	0.016 (≈ 0.0295 µM)	0.016 (≈ 0.0295 µM)	0.008 (≈ 0.0148 µM)	4 (≈ 7.39 µM)	1 (≈ 1.85 µM)	4 (≈ 7.39 µM)
CCc1nc(C(=O)c2ccc[n+](CC(N)=O)c2)c2sc(C3=C(C(=O)[O-])N4C(=O)[C@H]([C@@H](C)O)[C@H]4[C@H]3C)cn12	1 (≈ 1.91 µM)	0.063 (≈ 0.12 µM)	0.031 (≈ 0.0592 µM)	0.031 (≈ 0.0592 µM)	0.016 (≈ 0.0306 µM)	4 (≈ 7.64 µM)	4 (≈ 7.64 µM)	2 (≈ 3.82 µM)
C[C@@H](O)[C@H]1C(=O)N2C(C(=O)O)=C(c3cn4cnc(C(=O)[C@@H]5CCCN5)c4s3)[C@H](C)[C@H]12	1 (≈ 2.32 µM)	0.125 (≈ 0.29 µM)	0.031 (≈ 0.072 µM)	0.063 (≈ 0.146 µM)	≤ 0.008	0.125 (≈ 0.29 µM)	4 (≈ 9.29 µM)	0.125 (≈ 0.29 µM)
Cc1nc(C(=O)c2ccc[n+](CC(N)=O)c2)c2sc(C3=C(C(=O)[O-])N4C(=O)[C@H]([C@@H](C)O)[C@H]4[C@H]3C)cn12	1 (≈ 1.96 µM)	0.063 (≈ 0.124 µM)	0.008 (≈ 0.0157 µM)	0.031 (≈ 0.0608 µM)	0.016 (≈ 0.0314 µM)	0.5 (≈ 0.981 µM)	4 (≈ 7.85 µM)	0.25 (≈ 0.491 µM)
C[C@@H](O)[C@H]1C(=O)N2C(C(=O)O)=C(c3cn4cnc(C(=O)C5CCCCN5)c4s3)[C@H](C)[C@H]12 (some centres undefined)	1 (≈ 2.25 µM)	0.25 (≈ 0.562 µM)	0.063 (≈ 0.142 µM)	0.125 (≈ 0.281 µM)	0.016 (≈ 0.036 µM)	0.25 (≈ 0.562 µM)	4 (≈ 9 µM)	0.125 (≈ 0.281 µM)
CN[C@H](CC(C)C)C(=O)N[C@H]1C(=O)N[C@@H](CC(N)=O)C(=O)N[C@H]2C(=O)N[C@H]3C(=O)N[C@H](C(=O)N[C@H](C(=O)O)c4cc(O)cc(O)c4-c4cc3ccc4O)[C@H](O)c3ccc(c(Cl)c3)Oc3cc2cc(c3O[C@@H]2O[C@H](CO)[C@@H](O)[C@H](O)[C@H]2O[C@H]2C[C@](C)(N)[C@H](O)[C@H](C)O2)Oc2ccc(cc2Cl)[C@H]1O [VANCOMYCIN]	–	> 128	64 (≈ 44.2 µM)	0.5 (≈ 0.345 µM)	–	> 128	–	> 128
